Results as given in patent US9302993B2, “8-hydroxy quinoline derivatives” (PRANA BIOTECHNOLOGY LIMITED, priority 2002, dated 2016).
Like-named read-outs stand apart in the source and are kept apart here.

What was measured:
[1] = test system: Neuronal cortical cells; assay: Assay for test compound cytoxicity, MTS (Assay 3(d)); format: cell-based, mouse
Procedure: (§1) Media was then replaced with Neurobasal media (Invitrogen Life Technologies) and B27 supplements (Invitrogen Life Technologies). Cultures were maintained at 37° C. in 5% CO2. Prior to experimentation, the culture medium was replaced with Neurobasal media and B27 minus antioxidants (Invitrogen Life Technologies).
Cell viability is determined using the MTS assay. Culture medium is […] replaced with fresh neurobasal medium plus B27 supplements minus antioxidants. 1/10th volume MTS solution (Cell Titre 96 Aqueous One, Promega Corporation) and incubated at 37° C., 2 hrs. 200 microliter aliquots are measured with a spectrophotometer at 560 nm.
(d) Assay for Test Compound Cytoxicity
Neuronal cortical cells were cultured for five days as per Assay 2 in NB media and B27 supplement.
On day six the test compounds were added to the neuronal cell cultures in NB media and B27 supplement minus antioxidants.
Test compounds were dissolved in 100% DMSO to a concentration of 2.5 mM (10 mM if excess compound was weighed out per vial—then diluted to 2.5 mM). […] Test compounds were not added directly to cells, instead they were added to a 48 well ‘Drug Plate’ as comprised below:
(§2) The Drug Plate was incubated at 37° C. for 15 mins. 200 ul of each well was added in triplicate to the corresponding cell plate. The cell plate was incubated at 37 C, for 4 days.
On completion of the assay, 1/10 volume MTS was added per well of plate (ie 25 ul/250 ul). The plates were incubated at 37 C for 2 hrs, and then absorbance was read at 560 nm.

[2] = test system: Aβ in extract of tissue from post mortem human AD brain; assay: Human brain amyloid solubilisation assay (Assay 9, BAS); format: biochemical
Procedure: Assay 9. Human Brain Amyloid Solubilisation Assay
This assay was performed in order to assess the ability of a test compound to mobilise Aβ from the insoluble to the soluble phase of an extract of tissue from post mortem human AD brain.
Up to 0.5 g of plaque-bearing cortex without meninges was homogenized using a DIAX 900 homogenizer (Heudolph and Co, Kelheim, Germany) or other suitable device for three 30-second periods at full speed in 2 ml of ice-cold phosphate-buffered saline, pH 7.4. To obtain the phosphate-buffered saline-extractable fraction, the homogenate was centrifuged at 100,000×g for 30 min and the supernatant removed. Alternatively, the tissue was freeze dried then pulverised to form a powder which was then weighed out into aliquots for extraction as above. Supernatant, either freeze-dried and resuspended or in unconcentrated form, was dissolved in 200 μl of Tris-Tricine sodium dodecyl sulfate (SDS) sample buffer pH 8.3 containing 8% SDS, 10% 2-mercaptoethanol. Aliquots (10 μl) were then boiled for 10 minutes before SDS-polyacrylamide gel electrophoresis. The insoluble fraction of the cortical samples was obtained by resuspending the initial pelleted sample in 1 ml of phosphate-buffered saline. A 50-μl aliquot of this suspension was then boiled in […] of sample buffer as above.
Tris-Tricine polyacrylamide gel electrophoresis was performed by loading appropriately diluted samples on to 10% to 20% gradient gels (Novex, San Diego, Calif.) followed by transfer on to 0.2-μm nitrocellulose membrane (Bio-Rad, Hercules, Calif.). Aβ was detected by using monoclonal antibody W02, which detects residues 5 through 8, […] (or another suitable antibody) in conjunction with horseradish peroxidase-conjugated rabbit anti-mouse IgG (Dako, Denmark), and visualized by using enhanced chemiluminescence (eg ECL; Amersham Life Science, Buckinghamshire, UK). Each gel included three lanes containing 0.5, 1, and 2 ng of synthetic Aβ40 (Keck Laboratory, Yale University, New Haven, Conn.) as reference standards.
Blot films were scanned by using a suitable imaging system such as the UVP gel documentation system, and densitometry performed using suitable software, eg UVP Labworks. The dynamic range of the film/scanner was determined by using a step tablet (No. 911ST600, Kodak, Rochester N.Y.), a calibrated film exposed by the manufacturer to provided steps of known increasing intensity. The quantifiable range of signal intensity for densitometric analysis of the mono- and dimeric Aβ bands was based on the comparison with a curve obtained by scanning and densitometry of the step tablet.
All samples were analysed at least twice, and gel loadings and dilutions were adjusted to fit within the quantifiable region of the standard curve. […] The insoluble Aβ being comprised of the pelletable fraction derived from the insoluble amyloid plaque from the above cortical samples and the soluble fraction comprising monomeric and/or oligomeric soluble Aβ.

[3] = test system: Neuronal cortical cells treated with Aβ1-42; assay: Assay for Aβ neurotoxicity and Aβ neuroprotection (Assay 3(c)); format: cell-based, mouse; conditions: 20 uM Aβ1-42, 4 days, MTS
Procedure: as §1
(c) Assay for Aβ Neurotoxicity and Aβ Neuroprotection
Neuronal cortical cells were cultured for five days as per Assay 2. On day six the neurobasal (NB) media (Invitrogen Life Technologies) and B27 supplement (Invitrogen Life Technologies) were replaced with NB media and B27 supplement (no antioxidants). On day six, test compounds were individually added to the neuronal cell cultures:
Aβ was initially dissolved in 20 mM NaOH to a concentration of 1 mM and sonicated for 5 minutes. The peptide was then diluted in H2O and 10×PBS to a final concentration of 200 uM Aβ in 1×PBS. The peptide was again sonicated for 5 minutes and then spun at 14000 rpm for 5 min and transferred to a fresh tube.
The test compounds were dissolved in 100% DMSO to a concentration of 2.5 mM (10 mM if excess compound was weighed out per vial—then diluted to 2.5 mM). […] Test compounds were not added directly to cells, instead they were added to a 48 well ‘Drug Plate’ as comprised below:
as §2
On the 4th day after treating the cells the assay is completed by adding MTS to the cells.

[4] = target: T1, hydrogen peroxide generation by Aβ in the presence of copper (Homo sapiens, UniProt P05067); assay: Fluorometric H2O2 assay (Assay 1); format: biochemical; conditions: Aβ 1-42 with Cu-Gly, DCF/HRP, 37 C 60 min; several values in one cell = repeat determinations; read-out: Peroxide IC50
T1 construct: The reaction solutions contained Aβ 1-42 at concentrations in the range of 50 nM to 1 μM
T1 sequence (P05067 672-713 limits assumed): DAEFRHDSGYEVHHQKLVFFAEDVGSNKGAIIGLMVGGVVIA
Procedure: Assay 1. Fluorometric H2O2 Assay
A fluorometric assay was used to test the ability of a test compound to inhibit hydrogen peroxide generation by Aβ in the presence of copper based on dichlorofluoroscein diacetate (DCF; Molecular Probes, Eugene Oreg.). The DCF solution (5 mM) in 100% dimethyl sulphoxide (previously purged with argon for 2 hr at 20° C.) was deacetylated in the presence of 0.25M NaOH for 30 min and neutralised at pH 7.4 to a final concentration of 1 mM. Horseradish peroxidase (HRP) stock solution was prepared to 1 μM at pH 7.4. The reactions were carried out in PBS, pH 7.4 in a 96 well plate (total volume=250 μl/well). The reaction solutions contained Aβ 1-42 at concentrations in the range of 50 nM to 1 μM, copper-glycine chelate (Cu-Gly), was prepared by adding CuCl2 to glycine in the ratio of 1:6 and added to the Aβ in the proportion 2Cu-Gly: 1Aβ), reducing agents including dopamine (5 μM) or ascorbic acid, deacetylated DCF 100 μM, and HRP, 0.1 μM. […] The reaction mixture was incubated at 37 C for 60 min. […] H2O2 concentration may be established by comparing fluorescence with the H2O2 standards. Inhibition of AB H2O2 production was assayed by including a given concentration of test compound(s) in the test wells.

[5] = BL6J×129sv, mouse, 4 days, 1 uM
[6] = BL6J×129sv, mouse, 4 days, 10 uM
[7] = solubilising plaques relative to PBS

| Structure (SMILES) | Cell viability (% viable cells, MTS) ([1]; 1 uM, 4 days, in %) | Viable 10 uM ([1]; 10 uM test compound, repeated lines = repeat determinations, in %) | Cell viability (% viable cells, MTS) ([1]; 10 uM, 4 days, in %) | Cell viability (% viable cells, MTS) ([1]; 0.1 um, 4 days) [%] | BAS Score [2] | % inhibition Abeta toxicity [3] [%] | IC50 [4] [nM] | Test Compound Cytoxicity 1 uM [1, 5] | Test Compound Cytoxicity 10 uM [1, 6] | Viable 10 uM [1, 6] | Test Compound Cytoxicity 0.1 um ([1]; BL6J×129sv, mouse, 4 days) [%] | BAS Score [2, 7] |
| --- | --- | --- | --- | --- | --- | --- | --- | --- | --- | --- | --- | --- |
| Oc1cccc2cccnc12 [compound 42] | 87 | 97.66 | 79 | 90 | + | 14 |  |  |  |  |  |  |
| Oc1c(Br)cc(Br)c2cccnc12 [compound 47] |  |  |  |  |  | 13 | 900 | 88 | 86 | 93.59 |  |  |
| Cc1cc(C)c2cccnc2c1O [compound 59] |  |  |  |  |  | 22 |  | 97 | 55 |  | 89 | + |
| Oc1c(Br)cc(-c2cc(F)cc(F)c2)c2cccnc12 [compound 853] |  |  |  |  |  | 31 |  | 79 | 39 | 94.79 | 93 | + |
| Oc1c(-c2ccccc2C(F)(F)F)cc(Cl)c2cccnc12 [compound 864] |  |  |  |  |  | 13 |  | 88 | 37 | 93.12 | 100 | + |
| Oc1cccc2ccc(CN(CCc3c[nH]cn3)Cc3nccs3)nc12 [compound 1002] |  |  |  |  |  | 17 | 390 | 82 | 34 |  |  |  |
| Oc1cccc2ccc(CN(Cc3ccccn3)Cc3nccs3)nc12 [compound 1003] |  |  |  |  |  | 17 | 550 | 97 | 38 |  |  |  |
| CSc1ccccc1-c1ccc2cccc(O)c2n1 [compound 1005] |  |  |  |  |  | 1 | 2400 | 100 | 95 |  |  |  |
| Cc1cccc(-c2ccc3cccc(O)c3n2)n1 [compound 1007] |  |  |  |  |  | 9 | 580 | 90 | 43 |  |  |  |
| Oc1cccc2ccc(CN(CCc3c[nH]cn3)Cc3c[nH]cn3)nc12 [compound 1008] |  |  |  |  |  | 9 | 260 | 86 | 28 |  |  |  |
| Oc1cccc2ccc(CN(CCc3c[nH]cn3)Cc3ccccn3)nc12 [compound 1009] |  |  |  |  |  | 16 | 320 | 94 | 32 |  |  |  |
| Oc1cccc2ccc(CN(Cc3ccccn3)Cc3ccccn3)nc12 [compound 1010] |  |  |  |  |  | 12 | 330 | 88 | 27 |  |  |  |
| Oc1cccc2ccc(CN(Cc3ccccn3)Cc3c[nH]cn3)nc12 [compound 1011] |  |  |  |  |  | 21 | 320 | 89 | 31 |  |  |  |
| O=C(c1ccc2cccc(O)c2n1)N(Cc1ccccn1)Cc1ccccn1 [compound 1020] |  |  |  |  |  | 4 | 1300 | 85 | 83 |  |  |  |
| CC(=O)NC(=O)c1ccc2cccc(O)c2n1 [compound 1021] |  |  |  |  |  | 1 | 270 | 93 | 81 |  |  |  |
| O/N=C/c1ccc2c(Cl)cc(Cl)c(O)c2n1 [compound 1031] |  |  |  |  |  | 8 | 760 | 85 | 81 |  |  |  |
| CO/N=C/c1ccc2c(Cl)cc(Cl)c(O)c2n1 [compound 1032] |  |  |  |  |  | −2 | 1000 | 83 | 42 |  |  |  |
| NC(=O)c1ccc2c(Cl)cc(Cl)c(O)c2n1 [compound 1037] |  |  |  |  |  | 4 | > 10000 | 88 | 87 |  |  |  |
| O=C(O)c1ccc2c(Cl)cc(Cl)c(O)c2n1 [compound 1039] |  |  |  |  |  | 9 | > 10000 | 94 | 87 |  |  |  |
| CN(c1ccccn1)c1ccc2c(Cl)cc(Cl)c(O)c2n1 [compound 1056, 5,7-Dichloro-8-hydroxy-2-(methyl-pyridin-2-yl-amino)-quinoline] |  |  |  |  |  | 39 | 690 | 96.44 | 68.25 | 68.25 |  |  |
| Oc1c(Cl)cc(-c2cccnc2)c2cccnc12 [compound 1057, 7-chloro-5-(pyridin-3-yl)-quinolin-8-ol] |  |  |  |  |  | 4 | 430 | 101.84 | 95.02 | 95.02 |  |  |
| Oc1c(Cl)cc(Cl)c2cc(Cl)cnc12 [compound 1058, 3,5,7-trichloro-8-hydroxyquinoline] |  |  |  |  |  | 30 | 680 | 82.47 | 54.60 | 54.60 |  |  |
